According to ChEMBL document CHEMBL1201862, “PubChem BioAssay data set” (2004):
Active and inactive are the calls of the source.

Tests used:
[1] = target: T1, DNA repair and recombination protein RAD54-like (Homo sapiens, UniProt Q92698); experiment: inhibitors of human RAD54 branch migration, confirmation, biochemical, fluorescence, cherry-picked samples, dose series (AID 651657); format: functional
T1 sequence (Q92698 whole entry): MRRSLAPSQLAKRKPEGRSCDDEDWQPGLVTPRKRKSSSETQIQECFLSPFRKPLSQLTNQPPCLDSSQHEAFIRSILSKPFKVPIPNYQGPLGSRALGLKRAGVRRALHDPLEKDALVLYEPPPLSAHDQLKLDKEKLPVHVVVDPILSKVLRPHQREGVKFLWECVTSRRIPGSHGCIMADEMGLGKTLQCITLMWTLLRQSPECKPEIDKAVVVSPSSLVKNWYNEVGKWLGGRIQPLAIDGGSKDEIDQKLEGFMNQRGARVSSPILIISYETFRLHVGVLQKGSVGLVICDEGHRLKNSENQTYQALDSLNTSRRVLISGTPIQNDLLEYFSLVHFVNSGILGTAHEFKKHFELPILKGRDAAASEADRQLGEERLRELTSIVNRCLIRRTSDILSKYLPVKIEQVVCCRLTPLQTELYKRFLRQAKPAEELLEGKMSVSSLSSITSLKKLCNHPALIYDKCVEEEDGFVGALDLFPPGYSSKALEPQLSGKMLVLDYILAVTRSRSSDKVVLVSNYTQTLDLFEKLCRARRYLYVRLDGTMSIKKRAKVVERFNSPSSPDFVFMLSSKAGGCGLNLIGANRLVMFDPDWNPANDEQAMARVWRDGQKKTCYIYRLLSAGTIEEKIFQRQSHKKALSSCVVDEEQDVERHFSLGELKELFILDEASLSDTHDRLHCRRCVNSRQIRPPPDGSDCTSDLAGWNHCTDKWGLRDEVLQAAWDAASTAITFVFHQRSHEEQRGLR

[2] = target: T2, Ubiquitin-conjugating enzyme E2 N (Homo sapiens, UniProt P61088); format: functional;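 also: Dose-response confirmation in a TR-FRET assay detecting UBC13-driven polyubiquitin chain formation, inhibition measured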
T2 sequence (P61088 whole entry): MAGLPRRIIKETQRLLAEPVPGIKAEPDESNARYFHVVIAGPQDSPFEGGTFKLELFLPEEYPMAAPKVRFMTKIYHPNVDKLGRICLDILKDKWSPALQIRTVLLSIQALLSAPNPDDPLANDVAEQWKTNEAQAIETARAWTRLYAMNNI

[3] = target: Photoreceptor-specific nuclear receptor (Homo sapiens, UniProt Q9Y5X4); format: functional, cell-based;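 also: CHO-S cells with Gal4-NCOR and VP16-NR2E3 two-hybrid luciferase reporter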
Photoreceptor-specific nuclear receptor, sequence (Q9Y5X4 whole entry, the tested form may be a part): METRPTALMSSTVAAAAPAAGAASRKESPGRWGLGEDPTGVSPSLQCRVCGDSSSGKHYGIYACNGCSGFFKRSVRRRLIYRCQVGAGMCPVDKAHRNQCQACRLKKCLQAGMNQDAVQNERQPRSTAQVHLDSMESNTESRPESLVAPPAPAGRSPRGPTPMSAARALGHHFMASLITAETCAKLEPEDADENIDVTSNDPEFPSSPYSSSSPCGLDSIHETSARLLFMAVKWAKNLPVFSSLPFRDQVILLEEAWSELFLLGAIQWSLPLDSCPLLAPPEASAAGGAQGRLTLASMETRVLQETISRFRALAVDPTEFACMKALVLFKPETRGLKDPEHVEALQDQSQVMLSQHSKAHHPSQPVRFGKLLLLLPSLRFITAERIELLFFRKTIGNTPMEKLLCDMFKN

[4] = LGR2 antagonists, dose response, cell-based, HEK293, CRE-luciferase reporter, cherry pick, set 2 (AID 743343); format: functional;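 also: transfected cells were stimulated with diluted bursicon conditioned medium after compound addition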
[5] = target: T3, Microphthalmia-associated transcription factor (Homo sapiens, UniProt O75030); experiment: TRPM1 promoter luciferase signal decrease, dose response, MITF inhibitor project, cell-based, SK-MEL-5, cherry-picked, set 3 (AID 493073); format: functional
T3 sequence (O75030 whole entry): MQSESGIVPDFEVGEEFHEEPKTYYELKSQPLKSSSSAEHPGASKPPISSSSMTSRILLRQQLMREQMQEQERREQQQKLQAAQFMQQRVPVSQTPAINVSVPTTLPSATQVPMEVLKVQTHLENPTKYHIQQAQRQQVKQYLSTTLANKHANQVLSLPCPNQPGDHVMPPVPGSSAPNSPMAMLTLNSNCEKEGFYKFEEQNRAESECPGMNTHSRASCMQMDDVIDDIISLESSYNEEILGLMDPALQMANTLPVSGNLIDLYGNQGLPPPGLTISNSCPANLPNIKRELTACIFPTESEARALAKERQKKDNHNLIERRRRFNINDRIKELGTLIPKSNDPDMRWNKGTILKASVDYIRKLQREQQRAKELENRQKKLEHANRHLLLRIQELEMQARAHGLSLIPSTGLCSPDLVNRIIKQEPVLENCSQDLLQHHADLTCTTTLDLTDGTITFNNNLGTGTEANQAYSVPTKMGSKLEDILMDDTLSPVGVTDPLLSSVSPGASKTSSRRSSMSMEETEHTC

[6] = MC4R antagonists, dose response, counter-screen for LGR2 antagonist project, cell-based, plate reader, cherry pick (AID 743444); format: functional;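 also: transfected HEK 293 cells stimulated with alpha-MSH peptide; potency of inhibitors of the alpha-MSH evoked signal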
[7] = target: T4, Heat shock factor protein 1 (Mus musculus, UniProt P38532); experiment: inhibition of MG132-induced HSE-luciferase signal, confirmation, cell-based, NIH3T3, luminescence, dose retest (AID 2382); format: functional;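 also: NIH3T3 fibroblasts with HSF1-driven luciferase reporter stressed by proteasome inhibitor MG132; luminescence from HSF1-driven luciferase expression after 8 hours of MG132 stress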
T4 sequence (P38532 whole entry): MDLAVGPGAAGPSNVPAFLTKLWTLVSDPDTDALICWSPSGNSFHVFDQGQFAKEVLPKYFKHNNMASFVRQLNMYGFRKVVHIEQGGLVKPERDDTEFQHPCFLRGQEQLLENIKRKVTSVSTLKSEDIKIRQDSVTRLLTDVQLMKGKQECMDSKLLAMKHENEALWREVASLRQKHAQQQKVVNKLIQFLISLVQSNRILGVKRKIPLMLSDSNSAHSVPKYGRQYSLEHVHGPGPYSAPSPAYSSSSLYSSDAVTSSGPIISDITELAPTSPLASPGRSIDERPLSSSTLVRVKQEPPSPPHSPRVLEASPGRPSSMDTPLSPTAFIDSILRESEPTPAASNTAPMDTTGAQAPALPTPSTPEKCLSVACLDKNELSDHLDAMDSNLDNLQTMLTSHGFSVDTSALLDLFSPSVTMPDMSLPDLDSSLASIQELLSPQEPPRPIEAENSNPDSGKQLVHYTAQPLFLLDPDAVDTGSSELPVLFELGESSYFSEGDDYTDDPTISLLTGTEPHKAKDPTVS

[8] = A549 cell cytotoxicity, dose response, cytotoxicity control, plate reader, cherry-pick, antagonist series (AID 743412); format: functional, cell-based
[9] = inhibitors of firefly luciferase expression or activity, dose response, H4 neuroglioma cells, luminescence (AID 1990); format: functional, cell-based
[10] = M. tuberculosis H37Rv growth inhibitors, H37Rv strain (AID 1626); format: functional
[11] = target: NAD-dependent protein deacylase sirtuin-5, mitochondrial (Homo sapiens, UniProt Q9NXA8); experiment: SIRT5 desuccinylase inhibitors, dose response, biochemical, fluorescence imaging, cherry-pick, set 5 (AID 720591);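 also: desuccinylation of succinyl peptide AMC substrate read as fluorescence after trypsin release; potency of inhibitors that lower fluorescence and may act on trypsin instead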
NAD-dependent protein deacylase sirtuin-5, mitochondrial, sequence (Q9NXA8 whole entry): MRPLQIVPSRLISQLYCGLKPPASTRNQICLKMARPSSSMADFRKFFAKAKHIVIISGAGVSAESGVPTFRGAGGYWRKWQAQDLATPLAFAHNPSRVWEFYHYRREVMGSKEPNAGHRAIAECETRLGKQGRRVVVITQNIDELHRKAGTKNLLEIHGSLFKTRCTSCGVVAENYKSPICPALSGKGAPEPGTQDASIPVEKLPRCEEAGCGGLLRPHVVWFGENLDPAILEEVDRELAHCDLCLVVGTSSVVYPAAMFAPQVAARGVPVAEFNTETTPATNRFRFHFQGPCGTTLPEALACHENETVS

[12] = cytotoxicity toward NIH3T3 fibroblasts, dose response, counter-screen, cell-based, ATP luminescence, mouse fibroblasts (AID 2010); format: functional;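 also: cells exposed to compound for about 90 hours before reading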
[13] = HEK293 cell cytotoxicity, dose response, cytotoxicity control, plate reader, cherry-picked samples (AID 743446); format: functional, cell-based
[14] = HepG2 cell cytotoxicity, dose response, cytotoxicity control, plate reader, cherry-pick, antagonist series (AID 743416); format: functional, cell-based
[15] = inhibitors of intracellular T. cruzi replication, confirmation, NIH3T3 host cells, beta-gal luminescence (AID 2044); format: functional, cell-based;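 also: intracellular parasites grown in NIH/3T3 mouse fibroblasts as host cells; luminescent beta-galactosidase reporter signal from transgenic T. cruzi replicating inside host cells; inhibitors lower the luminescence signal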
[16] = target: T4, Heat shock factor protein 1; experiment: HSF1 potentiators in luciferase reporter cells, confirmation, cell-based, NIH3T3, luminescence, dose retest (AID 435004); format: functional;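 also: stress induced by proteasome inhibitor MG132 added 30 min after compound; luciferase reporter driven by HSF1 response element in NIH3T3 cells; actives raise luminescence as potentiators of the MG132 stress response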
[17] = growth suppression of beta-catenin-knockout colon cells, dose response, cell-based, HCT116, human colon tumor (AID 1045); format: functional;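 also: HCT116 colon tumor cells with beta catenin knocked out; cells exposed to compound for 60 hours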
Vero = experiment: cells; format: functional; settings: Chlorocebus sabaeus
[18] = growth suppression of PTEN-null colon cells, dose response, cell-based, HCT116 PTEN knockout (AID 1047); format: functional;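 also: HCT116 colon tumor cells with PTEN knocked out; cells exposed to compound for 60 hours before readout; potency for loss of cell viability measured by luminescence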
[19] = HEp-2 cell cytotoxicity, dose response, cytotoxicity control for RSV inhibitor project, HTS (AID 2410); format: functional; settings: human respiratory syncytial virus
Leucine aminopeptidase = target: T5, Leucine aminopeptidase (Plasmodium falciparum 3D7, UniProt Q8IL11); experiment: P. falciparum M17LAP inhibitors, primary screen, biochemical, fluorogenic H-Leu-NHMec substrate, 1536-well (AID 1619); format: functional
T5 sequence (Q8IL11 whole entry): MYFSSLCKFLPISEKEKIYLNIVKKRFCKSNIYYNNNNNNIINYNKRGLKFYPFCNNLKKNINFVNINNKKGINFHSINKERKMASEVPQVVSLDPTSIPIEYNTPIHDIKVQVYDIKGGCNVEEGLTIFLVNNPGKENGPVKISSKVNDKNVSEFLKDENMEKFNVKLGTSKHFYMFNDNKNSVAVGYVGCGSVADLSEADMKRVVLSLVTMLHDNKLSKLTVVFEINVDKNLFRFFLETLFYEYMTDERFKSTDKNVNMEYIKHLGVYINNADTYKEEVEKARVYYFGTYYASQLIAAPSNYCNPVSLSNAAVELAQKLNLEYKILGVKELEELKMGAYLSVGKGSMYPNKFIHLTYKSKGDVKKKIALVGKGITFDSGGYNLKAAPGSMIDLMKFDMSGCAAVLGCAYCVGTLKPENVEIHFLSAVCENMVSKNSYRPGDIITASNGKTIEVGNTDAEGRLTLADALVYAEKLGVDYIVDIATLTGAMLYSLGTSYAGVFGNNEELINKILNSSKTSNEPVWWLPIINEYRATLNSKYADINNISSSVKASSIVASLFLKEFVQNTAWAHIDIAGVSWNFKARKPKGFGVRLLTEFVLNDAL

[20] = target: Disintegrin and metalloproteinase domain-containing protein 17 (Homo sapiens, UniProt P78536); experiment: ADAM17 protease inhibitors, dose response, counter-screen for ADAM10 exosite inhibitor project, biochemical, quenched FRET substrate (AID 743253)
Disintegrin and metalloproteinase domain-containing protein 17, sequence (P78536 whole entry, the tested form may be a part): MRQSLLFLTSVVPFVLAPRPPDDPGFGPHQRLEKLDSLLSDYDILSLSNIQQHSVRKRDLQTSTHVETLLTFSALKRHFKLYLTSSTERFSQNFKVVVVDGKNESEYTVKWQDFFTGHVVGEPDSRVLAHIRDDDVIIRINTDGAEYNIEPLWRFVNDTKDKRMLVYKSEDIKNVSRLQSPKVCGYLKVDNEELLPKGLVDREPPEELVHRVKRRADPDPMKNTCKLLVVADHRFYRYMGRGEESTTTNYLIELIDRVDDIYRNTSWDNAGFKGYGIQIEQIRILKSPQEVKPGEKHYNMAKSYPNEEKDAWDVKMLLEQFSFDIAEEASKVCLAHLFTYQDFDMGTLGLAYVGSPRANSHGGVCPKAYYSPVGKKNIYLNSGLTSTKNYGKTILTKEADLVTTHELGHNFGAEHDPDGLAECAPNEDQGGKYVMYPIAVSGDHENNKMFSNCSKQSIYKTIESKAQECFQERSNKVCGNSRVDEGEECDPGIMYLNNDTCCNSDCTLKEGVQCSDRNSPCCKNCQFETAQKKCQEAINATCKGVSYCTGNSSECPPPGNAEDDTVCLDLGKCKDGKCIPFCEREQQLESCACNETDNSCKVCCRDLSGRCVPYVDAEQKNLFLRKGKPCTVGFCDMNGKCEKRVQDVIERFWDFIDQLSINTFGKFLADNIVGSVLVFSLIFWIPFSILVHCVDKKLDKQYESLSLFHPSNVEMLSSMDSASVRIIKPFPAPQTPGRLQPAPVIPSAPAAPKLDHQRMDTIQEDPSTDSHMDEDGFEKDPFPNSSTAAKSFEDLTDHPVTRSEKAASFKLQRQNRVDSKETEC

[21] = ADAM10 inhibitors, peptide cleavage, dose response, biochemical, QFRET (AID 743254);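 also: ADAM10 enzyme with the DM2 quenched FRET peptide as substrate; EDANS fluorescence gain as the protease cuts the substrate; inhibitor potency against ADAM10 proteolytic activity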
[22] = Luminescence Cell-Based Dose Retest to Confirm Inhibitors of Cancer Stem Cells. [Related pubchem assays (depositor defined):AID2717, AID2721]; format: functional; settings: Homo sapiens

Compound: CCCCN(CC)CCCNC(=O)c1cc2c(=O)n(C)c3ccccc3c2n1C
- AC50 [1]: 22.2 µM (active)
- IC50 [2]: > 20 µM (inactive)

Compound: Cc1cc(C(=O)CSc2nnc3ccccn23)c(C)n1-c1ccccc1
- IC50 [3]: 14.4 µM (inactive)
- AC50 [4]: 1.06 µM (active)
- AC50 [5]: 2.08 µM (active)
- AC50 [6]: 1.39 µM (active)
- EC50 [7]: < 0.16 µM (active)
- AC50 [8]: > 52 µM (inactive)
- EC50 [9]: 0.844 µM (active)

Compound: CCc1ccc(NC(=O)CSc2nnc(-c3ccccn3)n2C)cc1
- IC50 [10]: > 100 µM (active)

Compound: CNC(=O)CSc1nnc(-c2ccco2)n1-c1cccc(C)c1
- AC50 [11]: > 30 µM (inactive)

Compound: CCOC(=O)c1cc(-c2cc(OC)c(OC)c(OC)c2)nc2c1c(=O)[nH]c(=O)n2Cc1ccccc1
- AC50 [11]: > 30 µM (inactive)

Compound: O=C(c1cc(S(=O)(=O)N2CCN(c3ccccc3)CC2)ccc1Cl)N1CCCCCCC1
- IC50 [3]: 5.5 µM (active)

Compound: O=S(=O)(CC(CN1CCCCC1)N1CCCCC1)c1ccc2ccccc2c1 (configuration not stated)
- EC50 [12]: > 60 µM (not active)
- AC50 [13]: 18.8 µM (active)
- AC50 [14]: 14.6 µM (active)
- AC50 [4]: 22.3 µM (active)
- EC50 [15]: 2.65 µM (active)
- AC50 [5]: 12.5 µM (active)
- AC50 [6]: 14 µM (active)
- AC50 [8]: 11.6 µM (active)
- EC50 [16]: 13.9 µM (active)

Compound: Cc1ccc(-c2nc(N(C)C3CCN(C)CC3)c3ccccc3n2)cc1
- EC50 [17]: 6.51 µM (active)
- AC50 [1]: 3.93 µM (active)
- CC50 (Vero): 16.3 µM (active)
- EC50 [18]: 6.77 µM (active)

Compound: COc1ccc(/C=C/C(=O)c2ccc(C)c([N+](=O)[O-])c2)cc1O
- EC50 [17]: 4.65 µM (active)
- EC50 [18]: 5.39 µM (active)
- CC50 [19]: 15.8 µM (active)
- IC50 [10]: > 100 µM (active)

Compound: O=C(c1ccc(CSc2nc3cc[nH]cc-3n2)cc1)N1CCN(c2cccc(Cl)c2)CC1
- EC50 [12]: > 60 µM (not active)
- AC50 [13]: 50.4 µM (active)
- AC50 [14]: 32.6 µM (active)
- EC50 [15]: 1.39 µM (active)
- AC50 [8]: 38 µM (active)

Compound: CCCN(CC1CC1)C(=O)COC(=O)c1ccc2c(c1)C(=O)N(c1ccc(OCC)cc1)C2=O
- IC50 [10]: > 100 µM (active)

Compound: COc1ccc(-n2c(SCC(=O)Nc3ccc(C(=O)O)cc3)nnc2-c2cccs2)cc1
- IC50 (Leucine aminopeptidase): 14.5 µM (active)

Compound: COc1ccc(CCCNC(=O)C2CCC(=O)N(Cc3ccc(Cl)cc3)C2)cc1 (configuration not stated)
- AC50 [11]: > 30 µM (inactive)

Compound: Oc1ccc(C[C@H]2CNC(=S)N2C[C@H]2CCCN2C[C@H](Cc2ccccc2)N2C[C@H](Cc3ccc(O)cc3)N(CCc3ccccc3)C2=S)cc1
- IC50 [20]: > 69.5 µM (inactive)
- IC50 [21]: 15.1 µM (inactive)

Compound: CC(=O)N1c2ccc(S(=O)(=O)NCCC(=O)NC3CCC(C)CC3)cc2CC1C (configuration not stated)
- AC50 [11]: > 30 µM (inactive)

Compound: CC(O)(c1ccccc1)c1nc(-c2cc3ccccc3o2)cs1 (configuration not stated)
- IC50 [20]: > 69.5 µM (inactive)
- IC50 [21]: 17.2 µM (inactive)

Compound: Cc1ccccc1/N=C1\SC(CC(=O)Nc2ccc3ccccc3c2)C(=O)N1Cc1ccccn1 (configuration not stated)
- AC50 [22]: 4.16 µM (active)
- IC50 [20]: > 69.5 µM (inactive)
- EC50 [16]: > 120 µM (inactive)
- IC50 [21]: 12.5 µM (inactive)
